Test results: paper PMC7464559, “Synthesis, Optimization, Antifungal Activity, Selectivity, and CYP51 Binding of New 2-Aryl-3-azolyl-1-indolyl-propan-2-ols” (Pharmaceuticals, 2020)
Converted amounts (≈) assume the structure as drawn.

Key:
[1] = test system: ATCC6258 Candida krusei strain; test: Anti-Candida in vitro assay, ATCC6258; type: cell-based; details: Pichia kudriavzevii; Candida krusei ATCC6258, mean of triplicate; read-out: MIC (IC80) ATCC6258
Experimental: (§1) Test fungal strains were obtained from the American Type Culture Collection (ATCC) or were clinical isolates from the Laboratory of Parasitology and Medical Mycology, Centre Hospitalier Universitaire (CHU) of Nantes. The strains were maintained on Sabouraud agar slants and were subcultured 24 h before used. The activity of the target compounds 8a–g and 11a–m was determined by the method previously described. Briefly, molecules were diluted in RPMI 1640 medium supplemented with 0.165 M morpholinopropanesulphonic acid (Sigma-Aldrich, Saint-Quentin Fallavier, France), 2% glucose, and antibiotics. Candida suspensions were prepared in RPMI 1640 medium (Sigma-Aldrich, Saint-Quentin Fallavier, France) adjusted to give a final concentration of 10^3 cells/mL, and a 96-well microplate (Nunc, D. Dutscher, Brumath, France) was seeded with 100 µL. Each concentration of molecules (100 µL) to be tested was added (in triplicate) and plates were incubated at 37 °C for 24 h. The cellular viability was evaluated on the Fluorolite 1000 (Dynatech, France) with an excitation at 550 nm and an emission at 590 nm after a 4 h incubation with 10 µL of Alamar Blue®. […] MIC was expressed as the mean of the triplicate values. KTC and FLC were used as standards.

[2] = test system: ATCC2091 Candida albicans strain; test: Anti-Candida in vitro assay, ATCC2091; type: cell-based; details: Candida albicans ATCC2091, mean of triplicate; read-out: MIC (IC80) ATCC2091
Experimental: as §1

[3] = test system: CA98002 (Candida albicans); test: Anti-Candida in vitro assay, CA98002; type: cell-based; details: Candida albicans CA98002, mean of triplicate; read-out: MIC (IC80) CA98002
Experimental: as §1

[4] = test system: CK98003 (Candida krusei); test: Anti-Candida in vitro assay, CK98003; type: cell-based; details: Pichia kudriavzevii; Candida krusei CK98003, mean of triplicate; read-out: MIC (IC80) CK98003
Experimental: as §1

[5] = test system: ATCC90018 Candida parapsilosis strain; test: Anti-Candida in vitro assay, ATCC90018; type: cell-based; details: Lodderomyces parapsilosis; Candida parapsilosis ATCC90018, mean of triplicate; read-out: MIC (IC80) ATCC90018
Experimental: as §1

[6] = test system: CL98001 (Candida lusitaniae); test: Anti-Candida in vitro assay, CL98001; type: cell-based; details: Clavispora lusitaniae; Candida lusitaniae CL98001, mean of triplicate; read-out: MIC (IC80) CL98001
Experimental: as §1

[7] = test system: CK98002 (Candida krusei); test: Anti-Candida in vitro assay, CK98002; type: cell-based; details: Pichia kudriavzevii; Candida krusei CK98002, mean of triplicate; read-out: MIC (IC80) CK98002
Experimental: as §1

[8] = MRC5 toxicity assay; type: cell-based, human; details: human, MRC-5 human fetal lung fibroblast cells, MRC-5 cells, 96-h incubation, mean of triplicate; read-out: Cytotoxicity IC50 on MRC-5 cells
Experimental: The cytotoxicity of compounds was studied with human fibroblast (MRC5). Cells were grown in RPMI 1640 medium (Sigma-Aldrich, Saint-Quentin Fallavier, France) supplemented with 10% fetal bovin serum (Sigma–Aldrich). Drugs were tested at three concentrations (100, 10, and 1 µM) in triplicate. After a 96-h incubation time, cytotoxicity was measured on the Fluorolite 1000 (Dynatech, Guyancourt, France) after a 4-h incubation time with Uptiblue® (Interchim, Montluçon, France). Inhibitory concentration 50 is a mean of triplicate values. A toxicity index was determined as follow: IC50 against MRC5/Geometric mean of the MICs against Candida spp..

[9] = test system: CA98005 (Candida albicans); test: Anti-Candida in vitro assay, CA98005; type: cell-based; details: Candida albicans CA98005, mean of triplicate; read-out: MIC (IC80) CA98005
Experimental: as §1

[10] = test system: C. albicans CA98001; test: Anti-Candida in vitro assay (Alamar Blue), C. albicans CA98001; type: cell-based; details: Candida albicans, CA98001, 24 h, MIC = IC80, 24 h at 37 °C, mean of triplicate
Experimental: as §1

Row | Structure (SMILES) | melting point [°C] | MIC [1] [µg/mL] | MIC [2] [µg/mL] | MIC [3] [µg/mL] | MIC [4] [µg/mL] | MIC [5] [µg/mL] | MIC [6] [µg/mL] | MIC [7] [µg/mL] | IC50 at 96 h [8] [µM] | MIC [9] [µg/mL] | MIC [10] [µg/mL]
1 | OC(Cn1cncn1)(Cn1ccc2ccccc21)c1ccc(Cl)cc1 (centres unmarked) [Compound 11b, 2-(4-Chlorophenyl)-3-(1H-indol-1-yl)-1-(1H-1,2,4-triazol-1-yl)propan-2-ol] | 188 to 189 | 2.43 (≈ 6.9 µM) | 0.258 (≈ 0.731 µM) | 0.261 (≈ 0.74 µM) | 2.43 (≈ 6.9 µM) | 2.05 (≈ 5.8 µM) | 0.208 (≈ 0.59 µM) | 12.7 (≈ 35.9 µM) | > 100 | 0.222 (≈ 0.629 µM) | 0.024 (≈ 0.068 µM)
2 | Cc1cn(CC(O)(Cn2cncn2)c2ccc(Cl)cc2Cl)c2ccccc12 (centres unmarked) [Compound 11i, 2-(2,4-Dichlorophenyl)-3-(3-methyl-1H-indol-1-yl)-1-(1H-1,2,4-triazol-1-yl)propan-2-ol] | 161 to 162 | 3.01 (≈ 7.5 µM) | 0.026 (≈ 0.0648 µM) | 0.044 (≈ 0.11 µM) | 1.69 (≈ 4.2 µM) | 0.245 (≈ 0.611 µM) | 0.025 (≈ 0.0623 µM) | 0.803 (≈ 2 µM) | 19 | 0.03 (≈ 0.0748 µM) | 0.007 (≈ 0.0174 µM)
3 | OC(Cn1ccnc1)(Cn1ccc2ccccc21)c1ccc(Cl)cc1 (centres unmarked) [Compound 8b, 2-(4-Chlorophenyl)-1-(1H-imidazol-1-yl)-3-(1H-indol-1-yl)propan-2-ol] | 201 to 202 | > 35.2 | 0.215 (≈ 0.611 µM) | 0.165 (≈ 0.469 µM) | > 35.2 | 1.3 (≈ 3.69 µM) | 0.222 (≈ 0.631 µM) | 2.72 (≈ 7.74 µM) | 37 | 0.106 (≈ 0.301 µM) | 0.02 (≈ 0.0568 µM)
4 | OC(Cn1ccnn1)(Cn1ccc2ccccc21)c1ccc(Cl)cc1Cl (centres unmarked) [Compound 11l, 2-(2,4-Dichlorophenyl)-3-(1H-indol-1-yl)-1-(1H-1,2,3-triazol-1-yl)propan-2-ol] | 210 to 211 | – | – | – | – | – | – | – | – | – | > 100
5 | OC(Cn1ccnc1)(Cn1ccc2ccccc21)c1ccc(C(F)(F)F)cc1 (centres unmarked) [Compound 11e, 1-(1H-Imidazol-1-yl)-3-(1H-indol-1-yl)-2-(4-trifluoromethylphenyl)propan-2-ol] | 246 to 247 | 22.1 (≈ 57.4 µM) | 2.12 (≈ 5.5 µM) | 0.32 (≈ 0.83 µM) | 16.2 (≈ 42.1 µM) | 2.47 (≈ 6.4 µM) | 0.173 (≈ 0.449 µM) | 18.3 (≈ 47.5 µM) | 36 | 0.258 (≈ 0.669 µM) | 0.23 (≈ 0.597 µM)
6 | OC(Cn1ccnc1)(Cn1ccc2ccccc21)c1ccc(Br)cc1 (centres unmarked) [Compound 8c, 2-(4-Bromophenyl)-1-(1H-imidazol-1-yl)-3-(1H-indol-1-yl)propan-2-ol] | 134 to 135 | > 39.6 | 0.357 (≈ 0.901 µM) | 0.25 (≈ 0.631 µM) | 36.6 (≈ 92.3 µM) | 1.84 (≈ 4.64 µM) | 0.25 (≈ 0.631 µM) | 5.08 (≈ 12.8 µM) | 31 | 0.21 (≈ 0.53 µM) | 0.02 (≈ 0.0505 µM)
7 | Cc1cn(CC(O)(Cn2cncn2)c2ccc(F)cc2F)c2ccccc12 (centres unmarked) [Compound 11h, 2-(2,4-Difluorophenyl)-3-(3-methyl-1H-indol-1-yl)-1-(1H-1,2,4-triazol-1-yl)propan-2-ol] | 112 to 113 | 1.4 (≈ 3.8 µM) | 0.136 (≈ 0.369 µM) | 0.033 (≈ 0.0896 µM) | 0.7 (≈ 1.9 µM) | 0.309 (≈ 0.839 µM) | 0.023 (≈ 0.0624 µM) | 0.81 (≈ 2.2 µM) | 105 | 0.265 (≈ 0.719 µM) | –
8 | OC(Cn1ccnc1)(Cn1ccc2ccccc21)c1ccc(F)cc1 (centres unmarked) [Compound 8a, 2-(4-Fluorophenyl)-1-(1H-imidazol-1-yl)-3-(1H-indol-1-yl)propan-2-ol] | 166 to 167 | > 33.5 | 0.131 (≈ 0.391 µM) | 0.205 (≈ 0.611 µM) | 28.6 (≈ 85.3 µM) | 2.11 (≈ 6.29 µM) | 0.231 (≈ 0.689 µM) | 12.8 (≈ 38 µM) | 50 | 0.148 (≈ 0.441 µM) | 0.03 (≈ 0.0895 µM)
9 | OC(Cn1nccn1)(Cn1ccc2ccccc21)c1ccc(Cl)cc1Cl (centres unmarked) [Compound 11m, 2-(2,4-Dichlorophenyl)-3-(1H-indol-1-yl)-1-(2H-1,2,3-triazol-2-yl)propan-2-ol] | 159 to 161 | – | – | – | – | – | – | – | – | – | > 100
